Source: patent US20260083126A1, “ANTIMICROBIAL COMPOSITIONS” (AHV International B.V., priority 2022, published 2026)
≈ marks a conversion by molar mass, not a printed value. Entries after “also recorded” stand apart in the source; their conditions may differ. Where two headings read alike, the source gives them in different places.

Tests used:
[1] = test system: Lactococcus garvie Isolate 2; test: MIC assay; format: cell-based, Lactococcus garvieae; settings: for MIC50 / MIC90: Lactococcus
Experimental: (§1) The exact weighed amount was noted and the volume of solvent to reach a 80 mM dilution calculated. Half of the volume was added first, by adding Tween 80 and let stand for 5 minutes. In a second step, the other half of the volume DMSO was added and resuspended to help the dilution process. The closed tube was inverted 5-10 times and then vortexed very thoroughly for at least 30 seconds. If after this procedure crystals were still visible, the tube was placed in a shaker at 37° C. at 150 rpm for at least 30 minutes (it is indicated if the dissolution period was longer than 2 h). […] In case of Bis(4-Chlorophenyl) thiosulfonate, a lower concentrated stock solution of 2 mM needed to be prepared. For that, the required amount of compound was weighed in and 2% v/v Tween80 and 2% v/v DMSO of the end volume of the stock solution was added to the substance. This mix was heated in a water bath set to 40° C. and occasionally shaken. When the whole amount of the substance reached dissolution, the volume was filled up with growth medium until the end volume. This 2 mM stock solution of Bis(4-Chlorophenyl) thiosulfonate was used in the MIC plate and diluted two-fold, resulting in a testing range of Bis(4-Chlorophenyl) thiosulfonate from 1 mM to 0.002 mM.
(§2) The microorganisms as indicated in Table 4 were used to inoculate a tryptic soy agar (TSA) plate and incubated overnight at 37° C. After incubation 3-5 well-isolated colonies with the same morphology were selected from the TSA plate and resuspended in 2 mL 0.9% saline solution with 3-6 glass beads and vortexed. The optical density at 600 nm (OD600) of the bacterial suspension was measured with a spectrophotometer (Evolution™ 201/220 UV-Visible Spectrophotometer, Thermo Fisher Scientific) and diluted to an OD600 of 0.0008, which resembles 10^6 CFU/mL.
(§3) The MIC assay was performed in a flat-bottom 96-microtiter plate. 50 μL of MHB-II was added into columns 2-11, and 100 μL to column 12 for sterility control. 100 μL of the 8 mM test compound solution (method 1) was added to column 1. A two-fold dilution series of the solution in MHB-II was achieved by resuspending 50 μL of the 8 mM solution from column 1 to column 2. This step was repeated until column 10. The respective concentration of Tween 80 and DMSO in column 1 was 2.5%, which is two-fold diluted throughout the plate. 50 μL of the bacterial suspension was added to column 1-11. The microtiter plates were sealed with adhesive polyethylene film for sealing microplates (Diversified Biotech) and incubated for 24 h at 37° C. After incubation the OD was measured at 600 nm with the Varioskan (Thermo Fisher Scientific). The minimal concentration which causes reduction of final OD600 of the bacterial culture by 50% (MIC50) and by 90% (MIC90) was calculated after normalization of the obtained OD values to the growth control in column 11. This assay was repeated three times in three independent experiments.
Hereafter, the stock solutions of the compounds were used in three repetitions in a minimal inhibitory concentration (MIC) assay at a 2-fold dilution range with various bacteria from the gram-positive and gram-negative group and a yeast, Candida albicans. The concentrations that show only less than 10% growth after 24 h were considered the MIC90-values, whereas the concentrations that show 50% growth after 24 h when compared to the bacterial growth control were considered the MIC50-values. Escherichia coli and Staphylococcus aureus were used as representatives for a gram-negative bacteria and gram-positive bacteria, respectively. Furthermore, the yeast C. albicans was also tested.
In an Eppendorf tube between 10-20 mg of the test compound was weighed. Hereafter, the required amount of Tween 80 was added, followed by the amount DMSO. After vigorous shaking, the dissolved and transparent dilutions were diluted 10 times with Mueller Hinton Broth (MHB) for the MIC assay. […]

Caco-2 cell line = test: MTT cytotoxicity test; format: cell-based; settings: 24 h, 7.8 μM to 1 mM, emulsified with Tween-80/DMSO
Experimental: Scope. As standard tests cytotoxicity is measured on Caco-2 and HepG2 cell lines. Cytotoxicity of mentioned cell lines was determined by measuring the amount of converted MTT (3-(4,5-dimethylthiazol-2-yl)-2,5-diphenyltetrazolium bromide) by a mitochondrial dehydrogenase after exposure of various concentrations of the antimicrobial compounds. In living cells the dehydrogenase converts the soluble MTT into water insoluble purple formazan crystals that can not pass the cell membrane. The higher the metabolic activity of the cell, the more purple crystals are formed, the lower the cytotoxicity of the antimicrobial compound. Experimental design. The Caco-2 cell line as colorectal adenocarcinoma cells and HepG2 (derived from human liver) were used for the current experiments and were obtained from the ATCC. The intestinal Caco-2 cell line was cultured in 75-cm^2 culture flasks. Minimum Essential Medium (MEM) (Catalog Number(s) 31095029, ThermoFischer Scientific), supplemented with 10% (v/v) inactivated fetal calf serum (FCS) (Gibco), 1% (v/v) nonessential amino acids (Gibco), 1% sodium pyruvate (Gibco) and penicillin (100 U/ml)/streptomycin (100 μg/ml.) was utilized as medium for the growing cells. The cells were preserved in an incubator to provide them with the optimum moisture and temperature (humidified atmosphere of 95% air and 5% CO2 at 37° C. for 72 hours). The Caco-2 cells were seeded in flat bottom 96-well plates for performing the experiments. The cells were grown on flat bottom 96-well plates to the appropriate density to run the experiments. The cells were exposed to increasing concentrations of emulsified test compound (8 concentration, ranging from 7.8 μM to 1 mM) in standard culture medium (Catalogue 31331028, ThemoFischer Scientific) for each cell line. It should be noted that all the experiments were conducted in FBS (Catalog A3840101, ThermoFischer Scientific) and antibiotic free medium. The concentration of Tween-80 and DMSO that is present in the assay to emulsify the antimicrobial compound was in the range from 0,007% to 1%. The cells were incubated for 24 h with emulsified test compound and the assay was performed based on the standard protocol. By the end of the experiment the medium (cell supernatants) was removed and the lysis buffer (0.04 M hydrochloric acid, in propan-2-ol) was added to each well to solubilize the purple formazan crystals. As the final step, the absorbance was recorded by a multi-well reader at 595 nm. […] The results from all experiments were expressed as mean #standard error of the mean (SEM) conducted in triplicate (three wells/condition) of three independent experiments. Differences between results were statistically evaluated using One-way ANOVA with Bonferroni post-hoc test.

[2] = test system: Micrococcus luteus ATCC 4698; test: MIC assay; format: cell-based; settings: Example 2a, n = 3, ATCC 4698; for MIC50 / MIC90: Micrococcus luteus, ATCC4698
Experimental: as §1, §2, §3

[3] = Example 2a, n = 3, Isolate 2, read-out: MIC90 Lactococcus garvie (+)
[4] = Example 2b, FIG. 1, no MIC90 detected in the tested range, read-out: Average MIC90 L. garvieae (Lg)

MIC50 Lactococcus garvie (+) ([1]; Example 2a, n = 3, Isolate 2) [µM] | MIC90 Lactococcus garvie (+) ([1]; Example 2a, n = 3, Isolate 2) [µM] | MIC50 Micrococcus luteus (+) [2] [µM] | MIC90 Micrococcus luteus (+) [2] [µM] | Compound | MIC50 ([1]; Example 2a, n = 3, Isolate 2) [µM] | MIC90 [1, 3] [µM] | MIC90 [1, 4] [µM] | cytotoxic effect on Caco-2 cells (MTT) (Caco-2 cell line) | MIC50 [2] [µM] | MIC90 [2] [µM]
 |  |  |  | Clc1ccc(SSc2ccc(Cl)cc2)cc1 [Bis (4-chlorophenyl) disulfide, Bis(4-chlorophenyl) disulfide] | 1350 (≈ 388 µg/mL) | > 4000 | > 1000 | cytotoxic effects | 50 (≈ 14.4 µg/mL) | 250 (≈ 71.8 µg/mL)
 |  |  |  | Fc1ccc(SSc2ccc(F)cc2)cc1 [Bis (4-fluorophenyl) disulfide, Bis(4-fluorophenyl) disulfide] | 250 (≈ 63.6 µg/mL) | > 4000 | > 4000 | cytotoxic effects | 750 (≈ 191 µg/mL) | 2000 (≈ 509 µg/mL)
130 (≈ 35.1 µg/mL) | 830 (≈ 224 µg/mL) | 2000 (≈ 541 µg/mL) | 3330 (≈ 900 µg/mL) | [O-][S+](Sc1ccc(F)cc1)c1ccc(F)cc1 (centres unmarked) [Bis (4-fluorophenyl) thiosulfinate, Bis(4-fluorophenyl) thiosulfinate] |  |  |  |  |  | 
220 | 830 | 1500 | 2000 | O=S(=O)(Sc1ccc(F)cc1)c1ccc(F)cc1 [Bis (4-fluorophenyl) thiosulfonate, Bis(4-fluorophenyl) thiosulfonate] |  |  |  |  |  | 
 |  |  |  | CC(C)SS(=O)(=O)C(C)C [Di-isopropyl thiosulfonate] |  |  |  | cytotoxic effects; also recorded: cytotoxicity is lowest |  | 

Compound | MIC50 Lactococcus garvie (+) ([1]; Example 2a, n = 3, Isolate 2) [µM] | MIC90 Lactococcus garvie (+) ([1]; Example 2a, n = 3, Isolate 2) [µM] | MIC50 Micrococcus luteus (+) [2] [µM] | MIC90 Micrococcus luteus (+) [2] [µM] | MIC50 ([1]; Example 2a, n = 3, Isolate 2) [µM] | MIC90 [1, 3] [µM] | MIC90 [1, 4] [µM] | cytotoxic effect on Caco-2 cells (MTT) (Caco-2 cell line) | MIC50 [2] [µM] | MIC90 [2] [µM]
O=S(=O)(Sc1ccc(Cl)cc1)c1ccc(Cl)cc1 [Bis (4-chlorophenyl) thiosulfonate, Bis(4-chlorophenyl) thiosulfonate] | 90 | 500 | 210 | 750 |  |  |  | cytotoxic effects |  | 
